Source: ChEMBL document CHEMBL1201862, “PubChem BioAssay data set” (2004)
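Five compound concentrations were applied to cells in 96-well plates for 48 hours; endpoints were derived by simple linear interpolation of the resulting dose-response curve. Abbreviation: GI50, concentration required for 50% inhibition of growth.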 Active and inactive are the calls of the source. Cut-off read from the data, not from the text of the source: active = GI50 up to about 1.1 µM and inactive = higher.

Tests used:
Assay in all cases: inhibition of tumour cell growth, NCI panel, 48 h
NCI-H522 = system: NCI-H522
IGROV-1 = system: IGROV-1
RPMI-8226 = system: RPMI-8226
NCI-H460 = system: NCI-H460
HOP-92 = system: HOP-92
DMS-273 = system: DMS-273
OVCAR-5 = system: OVCAR-5
U-251 = system: U-251
RXF 393 = system: RXF 393
M14 = system: M14
HCT-15 = system: HCT-15
SF-268 = system: SF-268
HCC 2998 = system: HCC 2998
CCRF-CEM = system: CCRF-CEM
HT-29 = system: HT-29
SN12C = system: SN12C
T47D = system: T47D
PC-3 = system: PC-3
DU-145 = system: DU-145
MDA-MB-435 = system: MDA-MB-435

SMILES	GI50 (NCI-H522)	GI50 (IGROV-1)	GI50 (RPMI-8226)	GI50 (NCI-H460)	GI50 (HOP-92)	GI50 (DMS-273)	GI50 (OVCAR-5)	GI50 (U-251)	GI50 (RXF 393)	GI50 (M14)	GI50 (HCT-15) [µM]	GI50 (SF-268)	GI50 (HCC 2998)	GI50 (CCRF-CEM)	GI50 (HT-29)	GI50 (SN12C)	GI50 (T47D)	GI50 (PC-3)	GI50 (DU-145)	GI50 (MDA-MB-435)
C1OC1CO[C@@H]1CO[C@H]2[C@@H]1OC[C@H]2OCC1CO1 (stereo partly specified)	> 100 µM (inactive)	> 100 µM (inactive)	> 100 µM (inactive)	61.7 µM (inactive)	> 100 µM (inactive)	> 100 µM (inactive)	> 100 µM (inactive)	> 100 µM (inactive)	> 100 µM (inactive)	> 100 µM (inactive)	> 100	> 100 µM (inactive)	> 100 µM (inactive)	> 100 µM (inactive)	> 100 µM (inactive)	> 100 µM (inactive)	–	–	–	–
O=C(/C=C/c1cc(Cl)cc(Cl)c1O)c1cccc(O)c1	> 100 µM (inactive)	42.2 µM (inactive)	49.3 µM (inactive)	> 100 µM (inactive)	27.8 µM (inactive)	54.2 µM (inactive)	15 µM (inactive)	25.5 µM (inactive)	> 100 µM (inactive)	29.5 µM (inactive)	41.5	40.2 µM (inactive)	85.3 µM (inactive)	29.9 µM (inactive)	93.8 µM (inactive)	13.7 µM (inactive)	–	–	–	–
CC(=O)/C=C/c1cccc(N=S)c1	18.6 µM (inactive)	19.2 µM (inactive)	3.63 µM (inactive)	> 36.9 µM (inactive)	> 100 µM (inactive)	7.06 µM (inactive)	> 69 µM (inactive)	6.64 µM (inactive)	17.6 µM (inactive)	6.71 µM (inactive)	8.79	> 30.3 µM (inactive)	12.7 µM (inactive)	8.24 µM (inactive)	6.28 µM (inactive)	25.6 µM (inactive)	–	–	–	–
COc1cc(C=O)c(-c2cc3c(cc2C2(C)OCCS2)OCO3)c(OC)c1OC (stereo unspecified)	6.08 µM (inactive)	28.2 µM (inactive)	11.4 µM (inactive)	18.9 µM (inactive)	14.8 µM (inactive)	10.3 µM (inactive)	50 µM (inactive)	15.5 µM (inactive)	7.38 µM (inactive)	5.73 µM (inactive)	8.22	36.5 µM (inactive)	16.4 µM (inactive)	7.59 µM (inactive)	6.68 µM (inactive)	13.5 µM (inactive)	–	–	–	–
COc1ccc(-c2nc3c(nc2-c2ccc(OC)cc2)C(N)=NS(=O)(=O)N3)cc1	> 100 µM (inactive)	> 100 µM (inactive)	> 100 µM (inactive)	–	–	> 100 µM (inactive)	> 100 µM (inactive)	> 100 µM (inactive)	> 100 µM (inactive)	–	> 100	> 100 µM (inactive)	> 100 µM (inactive)	> 100 µM (inactive)	> 100 µM (inactive)	> 100 µM (inactive)	–	–	–	–
CCOc1ccc(N2C(=O)/C(=C/c3ccc(N(CCC#N)CCC#N)cc3)N=C2c2cc([N+](=O)[O-])ccc2Cl)cc1	–	–	15.7 µM (inactive)	23.5 µM (inactive)	–	14.7 µM (inactive)	> 100 µM (inactive)	51.5 µM (inactive)	12.2 µM (inactive)	24.1 µM (inactive)	33.8	30.8 µM (inactive)	37.2 µM (inactive)	–	–	63 µM (inactive)	–	–	–	–
O=C(/C=C1/Nc2ccc([N+](=O)[O-])cc2NC1O)c1cccc([N+](=O)[O-])c1 (stereo unspecified)	18.7 µM (inactive)	> 100 µM (inactive)	–	39.2 µM (inactive)	> 100 µM (inactive)	16.3 µM (inactive)	–	21 µM (inactive)	23.6 µM (inactive)	21.5 µM (inactive)	23.5	53.2 µM (inactive)	53.5 µM (inactive)	14.5 µM (inactive)	56.2 µM (inactive)	> 100 µM (inactive)	–	–	–	–
O=C(c1ccc(Cl)cc1)C1OC12C(=O)Nc1ccccc12 (stereo unspecified)	1.91 µM (inactive)	19.8 µM (inactive)	2.4 µM (inactive)	18.5 µM (inactive)	10.8 µM (inactive)	12.7 µM (inactive)	19.2 µM (inactive)	17.3 µM (inactive)	15.4 µM (inactive)	6.18 µM (inactive)	4.74	16.8 µM (inactive)	19.9 µM (inactive)	0.388 µM (active)	8.51 µM (inactive)	6.01 µM (inactive)	16.3 µM (inactive)	25.9 µM (inactive)	19.1 µM (inactive)	16.9 µM (inactive)
O=C(/C=C/c1ccc(OCCCCCCCCCCOc2ccc(/C=C/C(=O)c3ccc(Cl)cc3)cc2)cc1)c1ccc(Cl)cc1	> 100 µM (inactive)	> 100 µM (inactive)	> 100 µM (inactive)	> 100 µM (inactive)	> 100 µM (inactive)	> 100 µM (inactive)	> 100 µM (inactive)	> 100 µM (inactive)	> 100 µM (inactive)	–	> 100	> 100 µM (inactive)	> 100 µM (inactive)	> 100 µM (inactive)	> 100 µM (inactive)	> 100 µM (inactive)	–	–	–	–
O=C1c2ccccc2C(=O)c2nc(-c3ccccc3)c(-c3ccccc3)nc21	14.4 µM (inactive)	–	> 100 µM (inactive)	5.83 µM (inactive)	20.3 µM (inactive)	33.7 µM (inactive)	> 100 µM (inactive)	> 67 µM (inactive)	> 43.5 µM (inactive)	5.69 µM (inactive)	> 88.1	> 100 µM (inactive)	> 100 µM (inactive)	> 100 µM (inactive)	21.7 µM (inactive)	–	–	–	–	–
CN(C)C(=S)Nc1nnc(Nc2ccccc2)s1	9.51 µM (inactive)	> 100 µM (inactive)	–	> 100 µM (inactive)	> 100 µM (inactive)	> 100 µM (inactive)	> 100 µM (inactive)	> 100 µM (inactive)	> 100 µM (inactive)	> 100 µM (inactive)	> 100	–	> 100 µM (inactive)	> 100 µM (inactive)	> 100 µM (inactive)	> 100 µM (inactive)	–	–	–	–
CCCCN(Cc1ccccc1)/C(=N/C#N)N(Cc1ccccc1)Cc1ccccc1	7.26 µM (inactive)	17.6 µM (inactive)	12.6 µM (inactive)	9.84 µM (inactive)	11.4 µM (inactive)	16.6 µM (inactive)	27 µM (inactive)	17.1 µM (inactive)	17.3 µM (inactive)	12.8 µM (inactive)	14.4	18.8 µM (inactive)	26.5 µM (inactive)	26.7 µM (inactive)	10.9 µM (inactive)	18.2 µM (inactive)	15.8 µM (inactive)	6.71 µM (inactive)	34.7 µM (inactive)	15.7 µM (inactive)
COC(=O)/C=C/c1cc(OC)c(OC)c(OC)c1	46.5 µM (inactive)	> 100 µM (inactive)	–	> 100 µM (inactive)	> 100 µM (inactive)	> 100 µM (inactive)	–	–	> 100 µM (inactive)	> 100 µM (inactive)	> 100	> 100 µM (inactive)	> 100 µM (inactive)	> 100 µM (inactive)	> 100 µM (inactive)	> 100 µM (inactive)	–	–	–	–
COc1ccc(/C(=N\NC(=N)N)C(c2ccc(OC)cc2)C2OC(=O)c3ccccc32)cc1 (stereo unspecified)	> 100 µM (inactive)	> 100 µM (inactive)	> 100 µM (inactive)	> 100 µM (inactive)	> 100 µM (inactive)	> 100 µM (inactive)	> 100 µM (inactive)	> 100 µM (inactive)	> 100 µM (inactive)	> 100 µM (inactive)	> 100	> 100 µM (inactive)	> 100 µM (inactive)	> 100 µM (inactive)	> 100 µM (inactive)	> 100 µM (inactive)	–	–	–	–
CCC/C(=N\NC(=S)N1CCN(c2ccccn2)CC1)c1ccccn1	0.0413 µM (active)	0.00234 µM (active)	0.00115 µM (active)	0.0362 µM (active)	0.233 µM (active)	0.00117 µM (active)	0.61 µM (active)	0.00312 µM (active)	0.269 µM (active)	–	0.00528	0.236 µM (active)	0.0594 µM (active)	–	0.00137 µM (active)	–	0.00248 µM (active)	0.0152 µM (active)	1.13 µM (inactive)	0.133 µM (active)
